Literature values, collected in patent US7488493B2, “Performance aid for pesticide or repellent compositions” (Arkion Life Sciences, LLC, priority 2003, dated 2009).

Test system: birds

O=C1c2ccccc2C(=O)c2ccccc21 [9,10-anthraquinone]
Lower limit of detection in birds (threshold where birds begin to sense the repellency) (in vivo): 125 ppm | Content in seed at which birds will not feed (treated seed): 0.1 % by weight
